The source of these data is US20260028354A1, “TETRAHYDRONAPHTHALENE DERIVATIVES AS ESTROGEN RECEPTOR DEGRADERS” (REGENT OF THE UNIVERSITY OF MICHIGAN, priority 2022, published 2026).

Like-named read-outs stand apart in the source and are kept apart here.

Test [1] concerns the target ER in T47D cells (Homo sapiens (Human), UniProt P03372). Description: In-cell Western (ICW) ER degradation assay in T47D cells. The following applies: for DC50: ER degradation. The format is cell-based.
The target of test [2] is ERα_LBD (GST) (Homo sapiens (Human), UniProt P03372). As to the kind of experiment: IC50 measurements for binding to ERα_LBD (GST), LanthaScreen TR-FRET competitive binding. The following applies: ERα_LBD (GST) 4 nM, Fluormone ES2 Green tracer, 60 min; read-out: ERα HTRF IC50. Here is the method:
In vitro Assay: IC50 Measurements for binding to ERα_LBD (GST) • Final assay conditions: • 1. ERα_LBD (GST) protein: 4 nM • 2. Tb Anti-GST: 2 nM • 3. Fluormone ES2 Green tracer: 3 nM • 4. Incubation time: 60 min • 5. DMSO: 1% • 6. Assay buffer: Adding 1M DTT to Nuclear receptor Buffer K for final 5 mM DTT. • 7. ZPE: 1% DMSO • 8. HPE: 1 μM ARV_471 (positive control) • 9. LanthaScreen® TR-FRET ERα Competitive Binding Assay (ThermoFisher, #A^15887) • 100× Compound preparation
1) Cherry pick 2 μL 10 mM compound stock to column 1 of a 384 intermediate plate. • 2) Add 18 μL DMSO to column 1 to dilute compound to 1 mM. • 3) Transfer 10 μL 1 mM compound to column 1 of a LDV plate. • 2) Add 6 μl DMSO to column 2-10 of the LDV plate. • 3) Compounds undergo 3-fold serial dilution (3 μL+6 μL) in DMSO. • 4) Transfer 120 nL compound solution to assay plate. ZPE: 120 nL 100% DMSO • Procedure:
Complete nuclear receptor buffer K was prepared by adding 1 M DTT to nuclear receptor buffer K for a final concentration of 5 mM DTT. Complete nuclear receptor buffer K must be prepared fresh daily, 2X protein solution was prepared using complete nuclear receptor buffer K containing 8 nM ERα_LBD (GST) and 4 nM Tb Anti-GST. Then, 2X Fluormone ES2 Green tracer (6 nM) was prepared using complete nuclear receptor buffer K. Add 6 μL 2X Fluormone ES2 green tracer into a compound plate (PerkinElmer 6008289) by dragonfly with one-tips-addition. Subsequently, 6 μL 2× protein solution was added into the plate. The 384-well plate was mixed on a plate shaker and incubated at room temperature protected from light for 60 min. The plate was scaled with a cover to minimize evaporation. The plate was read at wavelengths of 520 nm and 495 nm. The TR-FRET ratio was calculated by dividing the emission signal at 520 nm by the emission signal at 495 nm. A binding curve was generated by plotting the emission ratio vs, the log [ligand]. To determine the IC50 value, fit the data using XL-fit for a sigmoidal dose-response.

Test [3] addresses ER in MCF-7 cells (Homo sapiens (Human), UniProt P03372). Description: In-cell Western (ICW) ER degradation assay in MCF-7 cells. The following applies: for DC50: MCF-7, ER degradation, read-out: MCF7 DC50. It counts as cell-based.
The target of test [4] is CRBN/DDB1 (Homo sapiens (Human), UniProt Q96SW2). It counts as binding. Conditions: His tagged CRBN+DDB1, Cy5-labeled Thalidomide probe, one hour; read-out: CRBN HTRF IC50. Here is the method: The binding potency was determined using HTRF assay technology (Perkin Elmer). Compounds were serially diluted in DMSO and […] volume was transferred to white 384-well plate.
Sequence of CRBN/DDB1 (Q96SW2 whole entry, species assumed): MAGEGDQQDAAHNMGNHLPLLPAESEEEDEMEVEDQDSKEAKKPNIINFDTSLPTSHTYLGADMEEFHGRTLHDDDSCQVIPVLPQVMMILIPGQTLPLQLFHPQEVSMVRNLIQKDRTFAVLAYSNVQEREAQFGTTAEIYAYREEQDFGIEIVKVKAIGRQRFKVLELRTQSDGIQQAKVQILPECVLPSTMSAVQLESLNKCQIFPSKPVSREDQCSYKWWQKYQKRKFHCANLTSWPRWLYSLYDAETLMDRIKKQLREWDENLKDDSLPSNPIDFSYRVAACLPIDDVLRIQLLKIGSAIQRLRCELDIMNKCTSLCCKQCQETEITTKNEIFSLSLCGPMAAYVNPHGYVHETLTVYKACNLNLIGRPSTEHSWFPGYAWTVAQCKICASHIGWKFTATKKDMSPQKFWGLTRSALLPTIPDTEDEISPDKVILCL
Sequence of CRBN/DDB1 (Q16531 whole entry partner, species assumed): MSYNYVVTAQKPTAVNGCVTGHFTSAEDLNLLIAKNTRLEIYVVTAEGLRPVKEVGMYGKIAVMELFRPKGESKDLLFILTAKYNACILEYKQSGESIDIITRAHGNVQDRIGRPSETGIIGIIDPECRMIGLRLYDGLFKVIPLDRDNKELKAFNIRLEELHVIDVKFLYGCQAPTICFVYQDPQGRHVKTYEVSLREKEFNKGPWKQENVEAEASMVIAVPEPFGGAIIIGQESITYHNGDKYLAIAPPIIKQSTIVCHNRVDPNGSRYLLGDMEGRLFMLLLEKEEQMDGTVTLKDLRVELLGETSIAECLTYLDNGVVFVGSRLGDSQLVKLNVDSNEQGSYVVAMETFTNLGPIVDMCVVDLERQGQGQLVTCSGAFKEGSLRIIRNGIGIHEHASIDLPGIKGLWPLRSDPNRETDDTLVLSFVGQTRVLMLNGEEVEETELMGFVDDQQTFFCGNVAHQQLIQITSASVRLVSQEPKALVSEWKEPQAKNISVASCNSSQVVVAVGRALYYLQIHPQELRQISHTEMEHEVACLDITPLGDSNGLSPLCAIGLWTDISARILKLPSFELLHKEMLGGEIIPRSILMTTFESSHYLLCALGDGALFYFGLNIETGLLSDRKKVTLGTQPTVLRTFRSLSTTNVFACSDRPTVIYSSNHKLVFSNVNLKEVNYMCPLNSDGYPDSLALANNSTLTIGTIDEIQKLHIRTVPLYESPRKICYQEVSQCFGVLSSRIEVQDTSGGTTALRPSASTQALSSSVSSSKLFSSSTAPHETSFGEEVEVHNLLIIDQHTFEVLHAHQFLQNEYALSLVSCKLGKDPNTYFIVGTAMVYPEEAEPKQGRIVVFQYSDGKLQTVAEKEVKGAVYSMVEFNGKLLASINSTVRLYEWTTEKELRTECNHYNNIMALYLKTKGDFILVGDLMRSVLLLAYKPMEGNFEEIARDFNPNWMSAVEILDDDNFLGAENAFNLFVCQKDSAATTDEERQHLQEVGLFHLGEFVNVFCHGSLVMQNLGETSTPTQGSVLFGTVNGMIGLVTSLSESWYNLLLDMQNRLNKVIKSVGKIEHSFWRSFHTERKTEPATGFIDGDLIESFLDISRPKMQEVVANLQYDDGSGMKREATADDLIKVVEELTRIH
[5] abbreviates: maximal ER degradation, 16 hrs treatment, read-out: T47D Dmax.
[6] abbreviates: MCF7, MCF-7, maximal ER degradation, 16 hrs treatment, read-out: MCF7 Dmax.
The mark [7] stands for this setting: read-out: T47D Dmax, T47D, maximal ER degradation, 16 hrs treatment.
Where [8] appears, read: MCF7, read-out: MCF7 Dmax, MCF-7, maximal ER degradation, 16 hrs treatment.

Sequence of ER in MCF-7 cells (P03372 whole entry): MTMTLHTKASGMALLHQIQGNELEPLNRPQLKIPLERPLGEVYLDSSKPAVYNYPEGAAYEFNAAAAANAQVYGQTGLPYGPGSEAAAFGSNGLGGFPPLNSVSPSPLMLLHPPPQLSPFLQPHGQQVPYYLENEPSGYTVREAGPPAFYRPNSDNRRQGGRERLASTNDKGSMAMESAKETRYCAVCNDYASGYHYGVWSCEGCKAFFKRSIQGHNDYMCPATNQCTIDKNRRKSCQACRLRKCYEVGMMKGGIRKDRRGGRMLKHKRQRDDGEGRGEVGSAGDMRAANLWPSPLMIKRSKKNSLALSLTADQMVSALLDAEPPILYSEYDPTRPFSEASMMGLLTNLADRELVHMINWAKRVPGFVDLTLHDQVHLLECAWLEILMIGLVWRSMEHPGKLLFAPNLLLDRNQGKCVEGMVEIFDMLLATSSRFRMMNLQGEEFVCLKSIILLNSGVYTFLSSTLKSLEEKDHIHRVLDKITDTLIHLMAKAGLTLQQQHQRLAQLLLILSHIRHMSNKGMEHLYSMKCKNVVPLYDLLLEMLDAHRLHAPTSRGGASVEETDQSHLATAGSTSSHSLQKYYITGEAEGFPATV
Sequence of ER in T47D cells (P03372 whole entry): as above
Sequence of ERα_LBD (GST) (P03372 311-547): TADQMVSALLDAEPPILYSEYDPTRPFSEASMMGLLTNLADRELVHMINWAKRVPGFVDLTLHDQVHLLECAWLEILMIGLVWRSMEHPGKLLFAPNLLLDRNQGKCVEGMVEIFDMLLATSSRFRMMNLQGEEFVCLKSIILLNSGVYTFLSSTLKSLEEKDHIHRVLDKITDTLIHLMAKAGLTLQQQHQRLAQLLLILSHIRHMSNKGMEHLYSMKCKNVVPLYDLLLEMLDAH

`COc1cc(N2CCC3(CC2)CC(CN2CCC(c4ccc(N[C@H]5CCC(=O)NC5=O)cc4)CC2)C3)c(F)cc1[C@@H]1c2ccc(O)cc2CC[C@@H]1c1ccccc1` (single isomer, unassigned) [Compound A30]: the DC50 in test [1] (16 hrs treatment) and in test [3] (16 hrs treatment) was less than 1 nM in each case. The Dmax in test [1] (setting [5]) was greater than 75%; in test [3] (setting [6]), 50 to 75%. Also, the IC50 in test [2] is less than 10 nM.

Regarding `COc1cc(N2CCC3(CC2)CC(CN2CCC(c4ccc(N[C@H]5CCC(=O)NC5=O)cc4)CC2)C3)c(F)cc1[C@H]1c2ccc(O)cc2CC[C@H]1c1ccccc1` (single isomer, unassigned) [Compound A32], the DC50 in test [1] (16 hrs treatment) and in test [3] (16 hrs treatment) was 10 to 100 nM each time. The Dmax in test [1] (setting [5]) and in test [3] (setting [6]) was 50 to 75% in each case. Besides, the IC50 in test [2] is greater than 100 nM.

On to `COc1cc(N2CCC3(CC2)CC(CN2CCN4c5ccc6c(c5OC[C@H]4C2)CN([C@H]2CCC(=O)NC2=O)C6=O)CO3)ccc1[C@H]1c2ccc(O)cc2CC[C@H]1c1ccccc1` (single isomer, unassigned) [Compound A52], for which the DC50 in test [1] (16 hrs treatment) and in test [3] (16 hrs treatment) was less than 1 nM in each case. In addition, the results for the maximal degradation (Dmax) in test [1] (setting [7]) and in test [3] (setting [8]) were greater than 75% and 50 to 75%, respectively. The IC50 in test [2] was less than 10 nM.

Regarding `COc1cc(N2CCC3(CC2)CC(CN2CCN4c5cc6c(cc5OC[C@@H]4C2)C(=O)N([C@H]2CCC(=O)NC2=O)C6)CO3)ccc1[C@H]1c2ccc(O)cc2CC[C@H]1c1ccccc1` (single isomer, unassigned) [Compound A56], the DC50 in test [1] (16 hrs treatment) and in test [3] (16 hrs treatment) was less than 1 nM each time. The Dmax in test [1] (setting [7]) was greater than 75%; in test [3] (setting [8]), 50 to 75%. Moreover, the IC50 in test [2] is less than 10 nM.

With `O=C1CC[C@H](N2Cc3c(ccc4c3OC[C@H]3CN(CC5CC6(CCN(c7ccc([C@@H]8c9ccc(O)cc9CC[C@@H]8c8ccccc8)cn7)CC6)C5)CCN43)C2=O)C(=O)N1` (single isomer, unassigned) [Compound A112], the IC50 in test [2] is less than 10 nM; in test [4], 50 to 500 nM. In test [3] (setting [6]), the Dmax was greater than 75%. Moreover, the DC50 in test [3] (16 hrs treatment) was less than 1 nM.

As for `O=C1CC[C@H](N2Cc3c(ccc4c3OC[C@H]3CN(CC5CCC6(CC5)CN(c5ccc([C@@H]7c8ccc(O)cc8CC[C@@H]7c7ccccc7)cn5)C6)CCN43)C2=O)C(=O)N1` (single isomer, unassigned) [Compound A123], the Dmax in test [1] (setting [5]) and in test [3] (setting [6]) was greater than 75% throughout. Moreover, the IC50 in test [2] is less than 10 nM.

`COc1cc(N2CCC3(CC2)C[C@H](CN2CCN4c5ccc6c(c5OC[C@H]4C2)CN([C@H]2CCC(=O)NC2=O)C6=O)CO3)ccc1[C@@H]1c2ccc(O)cc2CC[C@@H]1c1ccccc1` (single isomer, unassigned) [Compound A133]: the IC50 in test [2] was less than 10 nM. The Dmax in test [3] (setting [6]) is greater than 75%. Also, in test [3] (16 hrs treatment), the DC50 is less than 1 nM.

Turning to `COc1cc(N2CCC3(CC2)C[C@@H](CN2CCN4c5ccc6c(c5OC[C@H]4C2)CN([C@H]2CCC(=O)NC2=O)C6=O)CO3)ccc1[C@@H]1c2ccc(O)cc2CC[C@@H]1c1ccccc1` (single isomer, unassigned) [Compound A134], the IC50 in test [2] is less than 10 nM. Besides, the Dmax in test [3] (setting [6]) was greater than 75%. The DC50 in test [3] (16 hrs treatment) was less than 1 nM.

Turning to `COc1cc(N2CCC(CN3CCC4(CC3)COc3cc5c(cc34)CN([C@H]3CCC(=O)NC3=O)C5=O)CC2)ccc1[C@@H]1c2ccc(O)cc2CC[C@@H]1c1ccccc1` [Compound A33, (R)-3-(1′-((1-(4-((1R,2R)-6-hydroxy-2-phenyl-1,2,3,4-tetrahydronaphthalen-1-yl)-3-methoxyphenyl)piperidin-4-yl)methyl)-7-oxo-5,7-dihydro-2H,6H-spiro[furo[2,3-f]iso-indole-3,4′-piperidin]-6-yl)-piperidine-2,6-dione], the DC50 in test [1] (16 hrs treatment) and in test [3] (16 hrs treatment) was less than 1 nM each time. In addition, the Dmax in test [1] (setting [7]) and in test [3] (setting [8]) was 50 to 75% in each case. The IC50 in test [2] is less than 10 nM.

Regarding `COc1cc(N2CCC(CN3CCN4c5cc6c(cc5OC[C@@H]4C3)C(=O)N([C@H]3CCC(=O)NC3=O)C6)CC2)c(F)cc1[C@@H]1c2ccc(O)cc2CC[C@@H]1c1ccccc1` [Compound A91, (S)-3-((S)-3-((1-(2-fluoro-4-((1S,2S)-6-hydroxy-2-phenyl-1,2,3,4-tetrahydronaphthalen-1-yl)-5-methoxyphenyl)piperidin-4-yl)methyl)-8-oxo-3,4,4a,5-tetrahydro-1H-pyrazino[1′,2′: 4,5][1,4]oxazino[2,3-f]isoindol-9 (2H,8H,10H)-yl)piperidine-2,6-dione], the DC50 in test [1] (16 hrs treatment) and in test [3] (16 hrs treatment) was less than 1 nM throughout. For the same compound, the greatest degradation seen (Dmax) in test [1] (setting [5]) and in test [3] (setting [6]) was greater than 75% throughout. Also, the IC50 in test [2] was less than 10 nM.

With `COc1cc(N2CCC3(CC2)CC(CN2CCN4c5ccc6c(c5OC[C@H]4C2)CN([C@H]2CCC(=O)NC2=O)C6=O)C3)c(F)cc1[C@@H]1c2ccc(O)cc2CC[C@@H]1c1ccccc1` [Compound A99, (S)-3-((R)-7-((7-(2-fluoro-4-((1S,2S)-6-hydroxy-2-phenyl-1,2,3,4-tetrahydronaphthalen-1-yl)-5-methoxyphenyl)-7-azaspiro[3.5]nonan-2-yl)methyl)-1-oxo-1,3,5,5a,6,7,8,9-octahydro-2H-pyrazino[1′,2′:4,5][1,4]oxazino[2,3-e]isoindol-2-yl)piperidine-2,6-dione], the DC50 in test [1] (16 hrs treatment) and in test [3] (16 hrs treatment) was less than 1 nM in each case. The Dmax in test [1] (setting [5]) and in test [3] (setting [6]) was greater than 75% throughout. Also, in test [2], the concentration for half-maximal inhibition (IC50) is less than 10 nM.

Turning to `COc1cc(N2CCC3(CC2)CC(CN2CCN4c5cc6c(cc5OC[C@@H]4C2)C(=O)N([C@H]2CCC(=O)NC2=O)C6)C3)c(F)cc1[C@@H]1c2ccc(O)cc2CC[C@@H]1c1ccccc1` [Compound A101, (S)-3-((S)-3-((7-(2-fluoro-4-((1S,2S)-6-hydroxy-2-phenyl-1,2,3,4-tetrahydronaphthalen-1-yl)-5-methoxyphenyl)-7-azaspiro[3.5]nonan-2-yl)methyl)-8-oxo-1,2,3,4,4a,5,8,10-octahydro-9H-pyrazino[1′,2′: 4,5][1,4]oxazino[2,3-f]isoindol-9-yl)piperidine-2,6-dione], the IC50 in test [2] is less than 10 nM. In addition, the Dmax in test [3] (setting [6]) was greater than 75%. The DC50 in test [3] (16 hrs treatment) was less than 1 nM.

For `COc1cc(N2CCC3(CC2)CC(CN2CCC4(CC2)COc2cc5c(cc24)CN([C@H]2CCC(=O)NC2=O)C5=O)C3)c(F)cc1[C@@H]1c2ccc(O)cc2CC[C@@H]1c1ccccc1` [Compound A129, (S)-3-(1′-((7-(2-fluoro-4-((1S,2S)-6-hydroxy-2-phenyl-1,2,3,4-tetrahydronaphthalen-1-yl)-5-methoxyphenyl)-7-azaspiro[3.5]nonan-2-yl)methyl)-7-oxo-5,7-dihydro-2H,6H-spiro[furo[2,3-f]isoindole-3,4′-piperidin]-6-yl)piperidine-2,6-dione], the DC50 in test [1] (16 hrs treatment) and in test [3] (16 hrs treatment) was less than 1 nM each time. For the same compound, the Dmax in test [1] (setting [7]) and in test [3] (setting [8]) was greater than 75% each time. The IC50 in test [2] was less than 10 nM.

On to “(S)-3-(1′-((2-(2-fluoro-4-((1S,2S)-6-hydroxy-2-phenyl-1,2,3,4-tetrahydronaphthalen-1-yl)-5-methoxyphenyl)-2-azaspiro[3.5]nonan-7-yl)methyl)-7-oxo-5,7-dihydro-2H,6H-spiro[furo[2,3-f]isoindole-3,4′-piperidin]-6-yl)piperidine-2,6-dione [Compound A166]”, for which the IC50 in test [2] is less than 10 nM. The half-maximal degradation concentration (DC50) in test [3] (16 hrs treatment) is less than 1 nM. Also, the “MCF7 Dmax” value in test [3] (MCF-7, maximal ER degradation, 16 hrs treatment) was “B (“B”: >50 and <75%)”.
